Assay results as given in ChEMBL document CHEMBL4732258, “Pyxinol bearing amino acid residues: Easily achievable and promising modulators of P-glycoprotein-mediated multidrug resistance” (Eur J Med Chem, 2021).

Tests used:
Type in all cases: cell-based
KBV [1] = assay: Reversal of Pgp-mediated paclitaxel resistance in human KBV cells assessed as cell viability at 5 uM in presence of paclitaxel incubated for 72 hrs by MTT assay
[2] = Cytotoxicity against human KBV cells assessed as cell viability at 10 uM incubated for 72 hrs by MTT assay; conditions: read-out: Activity
KBV [3] = assay: Reversal of Pgp-mediated paclitaxel resistance in human KBV cells assessed as cell viability at 10 uM in presence of paclitaxel incubated for 72 hrs by MTT assay

| Structure (SMILES) | Activity (KBV [1]; filed as modulator) | viability at 72 h, 10 µM [2] | Activity (KBV [3]; filed as modulator) | Activity (KBV [1]) | Activity (KBV [3]) |
| --- | --- | --- | --- | --- | --- |
| CC(C)(C)OC(=O)NCC(=O)O[C@H]1CC[C@]2(C)[C@H]3C[C@@H](O)[C@@H]4[C@@H]([C@]5(C)CC[C@@H](C(C)(C)O)O5)CC[C@@]4(C)[C@]3(C)CC[C@H]2C1(C)C | 30% | 107% | 18% | – | – |
| CC(C)(O)[C@@H]1CC[C@@](C)([C@H]2CC[C@]3(C)[C@@H]2[C@H](O)C[C@@H]2[C@@]4(C)CC[C@H](OC(=O)[C@@H](N)Cc5ccccc5)C(C)(C)[C@@H]4CC[C@]23C)O1 | 35% | 100% | 29% | – | – |
| CC(C)[C@H](N)C(=O)O[C@H]1CC[C@]2(C)[C@H]3C[C@@H](O)[C@@H]4[C@@H]([C@]5(C)CC[C@H](C(C)(C)O)O5)CC[C@@]4(C)[C@]3(C)CC[C@H]2C1(C)C | 33% | 84% | 23% | – | – |
| CC(C)(C)OC(=O)NCCCC[C@H](NC(=O)OC(C)(C)C)C(=O)O[C@H]1CC[C@]2(C)[C@H]3C[C@@H](O)[C@@H]4[C@@H]([C@]5(C)CC[C@H](C(C)(C)O)O5)CC[C@@]4(C)[C@]3(C)CC[C@H]2C1(C)C | 34% | 147% | 31% | – | – |
| CC(C)(O)[C@H]1CC[C@@](C)([C@H]2CC[C@]3(C)[C@@H]2[C@H](O)C[C@@H]2[C@@]4(C)CC[C@H](OC(=O)[C@@H](N)Cc5ccccc5)C(C)(C)[C@@H]4CC[C@]23C)O1 | 26% | 74% | 21% | – | – |
| CC(C)(C)OC(=O)N[C@@H](Cc1cn(C(=O)OC(C)(C)C)c2ccccc12)C(=O)O[C@H]1CC[C@]2(C)[C@H]3C[C@@H](O)[C@@H]4[C@@H]([C@]5(C)CC[C@@H](C(C)(C)O)O5)CC[C@@]4(C)[C@]3(C)CC[C@H]2C1(C)C | – | 137% | – | 138% | 147% |
| CC(C)(O)[C@@H]1CC[C@@](C)([C@H]2CC[C@]3(C)[C@@H]2[C@H](O)C[C@@H]2[C@@]4(C)CC[C@H](O)C(C)(C)[C@@H]4CC[C@]23C)O1 | – | 81% | – | 74% | 72% |
| CC(C)(O)[C@@H]1CC[C@@](C)([C@H]2CC[C@]3(C)[C@@H]2[C@H](O)C[C@@H]2[C@@]4(C)CC[C@H](OC(=O)[C@@H](N)CC(=O)O)C(C)(C)[C@@H]4CC[C@]23C)O1 | – | 106% | – | 110% | 92% |
| CC(C)(C)OC(=O)CC[C@H](NC(=O)OC(C)(C)C)C(=O)O[C@H]1CC[C@]2(C)[C@H]3C[C@@H](O)[C@@H]4[C@@H]([C@]5(C)CC[C@@H](C(C)(C)O)O5)CC[C@@]4(C)[C@]3(C)CC[C@H]2C1(C)C | 19% | 46% | 17% | – | – |
| CC(C)(O)[C@H]1CC[C@@](C)([C@H]2CC[C@]3(C)[C@@H]2[C@H](O)C[C@@H]2[C@@]4(C)CC[C@H](OC(=O)CN)C(C)(C)[C@@H]4CC[C@]23C)O1 | 43% | 106% | 28% | – | – |
| CC(C)(C)OC(=O)N[C@@H](Cc1ccccc1)C(=O)O[C@H]1CC[C@]2(C)[C@H]3C[C@@H](O)[C@@H]4[C@@H]([C@]5(C)CC[C@H](C(C)(C)O)O5)CC[C@@]4(C)[C@]3(C)CC[C@H]2C1(C)C | 48% | 125% | 25% | – | – |
| CC(C)(C)OC(=O)N[C@@H](Cc1ccc(OC(C)(C)C)cc1)C(=O)O[C@H]1CC[C@]2(C)[C@H]3C[C@@H](O)[C@@H]4[C@@H]([C@]5(C)CC[C@@H](C(C)(C)O)O5)CC[C@@]4(C)[C@]3(C)CC[C@H]2C1(C)C | – | 104% | 22% | 78% | – |
| CC(C)[C@H](NC(=O)OC(C)(C)C)C(=O)O[C@H]1CC[C@]2(C)[C@H]3C[C@@H](O)[C@@H]4[C@@H]([C@]5(C)CC[C@H](C(C)(C)O)O5)CC[C@@]4(C)[C@]3(C)CC[C@H]2C1(C)C | 31% | 120% | 20% | – | – |
| CC(C)(O)[C@H]1CC[C@@](C)([C@H]2CC[C@]3(C)[C@@H]2[C@H](O)C[C@@H]2[C@@]4(C)CC[C@H](OC(=O)[C@@H](N)CCCCN)C(C)(C)[C@@H]4CC[C@]23C)O1 | – | 45% | 29% | 85% | – |
| CC(C)(C)OC(=O)C[C@H](NC(=O)OC(C)(C)C)C(=O)O[C@H]1CC[C@]2(C)[C@H]3C[C@@H](O)[C@@H]4[C@@H]([C@]5(C)CC[C@H](C(C)(C)O)O5)CC[C@@]4(C)[C@]3(C)CC[C@H]2C1(C)C | 32% | 85% | 20% | – | – |
| CC(C)(C)OC(=O)NCC(=O)O[C@H]1CC[C@]2(C)[C@H]3C[C@@H](O)[C@@H]4[C@@H]([C@]5(C)CC[C@H](C(C)(C)O)O5)CC[C@@]4(C)[C@]3(C)CC[C@H]2C1(C)C | 28% | 106% | 22% | – | – |

| Structure (SMILES) | Activity (KBV [1]; filed as modulator) | viability at 72 h, 10 µM [2] | Activity (KBV [3]; filed as modulator) | Activity (KBV [1]) | Activity (KBV [3]) |
| --- | --- | --- | --- | --- | --- |
| C[C@@H](OCc1ccccc1)[C@H](NC(=O)OC(C)(C)C)C(=O)O[C@H]1CC[C@]2(C)[C@H]3C[C@@H](O)[C@@H]4[C@@H]([C@]5(C)CC[C@@H](C(C)(C)O)O5)CC[C@@]4(C)[C@]3(C)CC[C@H]2C1(C)C | 24% | 76% | 19% | – | – |
| CC(C)(O)[C@@H]1CC[C@@](C)([C@H]2CC[C@]3(C)[C@@H]2[C@H](O)C[C@@H]2[C@@]4(C)CC[C@H](OC(=O)CN)C(C)(C)[C@@H]4CC[C@]23C)O1 | – | 86% | – | 98% | 63% |
| C[C@@H](OCc1ccccc1)[C@H](N)C(=O)O[C@H]1CC[C@]2(C)[C@H]3C[C@@H](O)[C@@H]4[C@@H]([C@]5(C)CC[C@@H](C(C)(C)O)O5)CC[C@@]4(C)[C@]3(C)CC[C@H]2C1(C)C | 46% | 102% | 30% | – | – |
| CC(C)(O)[C@H]1CC[C@@](C)([C@H]2CC[C@]3(C)[C@@H]2[C@H](O)C[C@@H]2[C@@]4(C)CC[C@H](OC(=O)[C@@H](N)CCC(=O)O)C(C)(C)[C@@H]4CC[C@]23C)O1 | – | 106% | – | 105% | 72% |
| CC(C)(O)[C@H]1CC[C@@](C)([C@H]2CC[C@]3(C)[C@@H]2[C@H](O)C[C@@H]2[C@@]4(C)CC[C@H](OC(=O)[C@@H](N)CC(=O)O)C(C)(C)[C@@H]4CC[C@]23C)O1 | – | 95% | – | 106% | 61% |
| CC(C)(O)[C@@H]1CC[C@@](C)([C@H]2CC[C@]3(C)[C@@H]2[C@H](O)C[C@@H]2[C@@]4(C)CC[C@H](OC(=O)[C@@H](N)CCCCN)C(C)(C)[C@@H]4CC[C@]23C)O1 | – | 81% | – | 98% | 82% |
| CC(C)(O)[C@@H]1CC[C@@](C)([C@H]2CC[C@]3(C)[C@@H]2[C@H](O)C[C@@H]2[C@@]4(C)CC[C@H](OC(=O)[C@@H](N)Cc5c[nH]c6ccccc56)C(C)(C)[C@@H]4CC[C@]23C)O1 | 30% | 52% | 27% | – | – |
| CC(C)(C)OC(=O)C[C@H](NC(=O)OC(C)(C)C)C(=O)O[C@H]1CC[C@]2(C)[C@H]3C[C@@H](O)[C@@H]4[C@@H]([C@]5(C)CC[C@@H](C(C)(C)O)O5)CC[C@@]4(C)[C@]3(C)CC[C@H]2C1(C)C | 35% | 88% | 17% | – | – |
| CC(C)(C)OC(=O)N[C@@H](Cc1cn(C(=O)OC(C)(C)C)c2ccccc12)C(=O)O[C@H]1CC[C@]2(C)[C@H]3C[C@@H](O)[C@@H]4[C@@H]([C@]5(C)CC[C@H](C(C)(C)O)O5)CC[C@@]4(C)[C@]3(C)CC[C@H]2C1(C)C | – | 132% | – | 165% | 161% |
| CC(C)(C)OC(=O)N[C@@H](Cc1ccccc1)C(=O)O[C@H]1CC[C@]2(C)[C@H]3C[C@@H](O)[C@@H]4[C@@H]([C@]5(C)CC[C@@H](C(C)(C)O)O5)CC[C@@]4(C)[C@]3(C)CC[C@H]2C1(C)C | 17% | 17% | 16% | – | – |
| CC(C)(O)[C@@H]1CC[C@@](C)([C@H]2CC[C@]3(C)[C@@H]2[C@H](O)C[C@@H]2[C@@]4(C)CC[C@H](OC(=O)[C@@H](N)Cc5ccc(O)cc5)C(C)(C)[C@@H]4CC[C@]23C)O1 | – | 97% | 35% | 87% | – |
| CC(C)(C)OC(=O)N[C@@H](Cc1ccc(OC(C)(C)C)cc1)C(=O)O[C@H]1CC[C@]2(C)[C@H]3C[C@@H](O)[C@@H]4[C@@H]([C@]5(C)CC[C@H](C(C)(C)O)O5)CC[C@@]4(C)[C@]3(C)CC[C@H]2C1(C)C | – | 98% | – | 107% | 71% |
| CC(C)(C)OC(=O)CC[C@H](NC(=O)OC(C)(C)C)C(=O)O[C@H]1CC[C@]2(C)[C@H]3C[C@@H](O)[C@@H]4[C@@H]([C@]5(C)CC[C@H](C(C)(C)O)O5)CC[C@@]4(C)[C@]3(C)CC[C@H]2C1(C)C | 31% | 82% | 19% | – | – |
| CC(C)(O)[C@H]1CC[C@@](C)([C@H]2CC[C@]3(C)[C@@H]2[C@H](O)C[C@@H]2[C@@]4(C)CC[C@H](O)C(C)(C)[C@@H]4CC[C@]23C)O1 | – | 91% | – | 83% | 63% |
| C[C@@H](OCc1ccccc1)[C@H](N)C(=O)O[C@H]1CC[C@]2(C)[C@H]3C[C@@H](O)[C@@H]4[C@@H]([C@]5(C)CC[C@H](C(C)(C)O)O5)CC[C@@]4(C)[C@]3(C)CC[C@H]2C1(C)C | 31% | 20% | 18% | – | – |
